Reference: article PMC7938888, “Antidepressant drugs act by directly binding to TRKB neurotrophin receptors” (Cell, 2021)

B1: BDNF: brain-derived neurotrophic factor, TRKB ligand (protein, UniProt P23560 19-247, looked up)
Neurotrophic factor BDNF …: APMKEANIRGQGGLAYPGVRTHGTLESVNGPKAGSRGLTSLADTFEHVIEELLDEDQKVRPNEENNKDADLYTSRVMLSSQVPLEPPLLFLLEEYKNYLDAANMSMRVRRHSDPARRGELSVCDSISEWVTAADKKTAVDMSGGTVTVLEKVPVSKGQLKQYFYETKCNPMGYTKEGCRGIDKRHWNSQCRTTQSYVRALTMDSKKRIGWRFIRIDTSCVCTLTIKRGR

Experiments:
E18 cortical cells = assay: Cell viability (CellTiterGlo) of cortical cells; format: cell-based, rat; conditions: pravastatin 2 μM/5 days; CHOL 20 μM or BDNF 10 ng/ml, 5 days
Description: The cell viability assay was performed using CellTiterGlo (#G7571; Promega) according to manufacturer’s instructions. Briefly, equal amounts of medium and the mixture of regents A and B were added to the E18 cortical cells (DIV8) cultivated in clear bottom 96-well plates and incubated for 40min. The luminescence was analyzed in a plate reader.

GFP-TRKB.Y433F = assay: dSTORM/TIRF of GFP-TRKB.Y433F clusters on MG87.TRKB cells; format: cell-based, mouse; conditions: BDNF 10 ng/ml, FLX 10 μM, CHOL 20 μM, KET 10 μM; 15 min
Description: (§1) For direct stochastic optical reconstruction microscopy (dSTORM) MG87.TRKB cells were grown on cell view 35mm dishes with glass bottom (Greiner) coated with poly-L-lysine (Sigma). […] Briefly, cells were fixed 24 hours post transfection with 4% PFA for 20 minutes, washed three times for 5 min with 1x PBS and incubated in blocking buffer (1% BSA, 0.1% gelatin, 5% goat serum, 0.1% Triton X-100 and 0.05% Tween-20 in PBS; all from Sigma) for 1 hour. The primary antibody against GFP (Abcam, #ab290) was diluted 1:100 and incubated overnight at +4°C, while the secondary antibody Alexa Fluor-conjugated goat-anti-rabbit 647 (Invitrogen) was diluted 1:500 and incubated at room temperature for 1 hour. The dishes were stored in +4°C in 1x PBS no longer than 48 hours before imaging.
(§2) During imaging, cells were maintained in blinking buffer (10% glucose, 0.07% cysteamine, 0.75 mg/ml glucose oxidase and 0.04 mg/ml catalase in 0.1 M Tris buffer, pH 7.8-8; all reagents from Sigma-Aldrich), which was freshly prepared and changed every hour. Imaging was performed in TIRF mode (TIRF angle 89.3 calibrated with ring-TIRF at least twice per sample) to specifically image the fluorophores at the plasma membrane. A GE DeltaVision OMX SR system (GE Healthcare) equipped with an Apo N 60x/1.49 oil objective and a sCMOS camera was used to acquire the images. The 640 nm diode laser was used at 100% of power to excite the Alexa 647 fluorophores while the 405 nm laser was adjusted until approximately 50% of power in order to maintain the blinking throughout the imaging session. For each cell, 35000 frames were acquired, and the localization map of single fluorophores was reconstructed with SoftWoRx 7.0 software (GE Healthcare). For the localization map, the first 1000 frames approximately were discarded and the reconstruction parameters were maintained identical for all the samples.
(§3) Reconstruction parameters: For the localization of all the blinking events in the dataset, the point spread function size factor was set at 1.550 with a local maximum factor of 0.05. Drift correction was adjusted dividing the frames into 20 groups. Tracking of the fluorophores was performed with a maximum localization precision of 100 nm without fiducial markers. The final localization map of the fluorophores identified was built with a reconstruction pixel size of 10 nm and localization precision set at 5 and 100 nm respectively for the minimum and the maximum, and a fluorophore persistence threshold set at 3 frames.
(§4) The analysis of the reconstructed images was performed in Fiji. Depending on the size of picture, 5 or 10 representative regions of interest (ROIs) of 2x1 μm were blindly chosen per cell and used for particle analysis of the TRKB-positive clusters. […]

GFP-TRKB [1] = assay: dSTORM/TIRF of GFP-TRKB clusters on MG87.TRKB cells; format: cell-based, mouse; conditions: BDNF 10 ng/ml, FLX 10 μM, CHOL 20 μM, KET 10 μM; 15 min
Description: as §1, §2, §3, §4

[2] = system: TRKB autophosphorylation (TRKB:pY); assay: TRKB:pY ELISA in cultured cortical cells; format: cell-based, rat; conditions: for effect on TRKB phosphorylation (pTRKB) by BDNF: BDNF 10 ng/mL, primary cortical neurons
Description: (§5) The TRKB:pY (phosphorylated TRKB), TRKB:PLC-γ1, PLC-γ1:pTRKB.Y816 interactions and were determined by ELISA, based on the general method described in literature ([Antila et al., 2014]; [Fred et al., 2019]), with minor adjustments. Briefly, white 96-well plates (OptiPlate 96F-HB, Perkin Elmer) were coated with capturing anti-TRKB or PLC-γ1 antibody (1:1000) in carbonate buffer (pH = 9.8) overnight (ON) at 4°C. Following a blocking step with 2%BSA in TBS-T (2 h, RT), samples were incubated ON at 4°C. The incubation with antibody against pTRKB.Y816, PLC-γ1 or pY (1:2000, ON, 4°C) was followed by HRP-conjugated anti-Rb IgG (1:5000, 2h, RT) or HRP-conjugated streptavidin (1:10000, 2h, RT). Finally, the chemiluminescent signal generated by the reaction with ECL was analyzed in a plate reader (Varioskan Flash, Thermo Scientific).

mice [3] = assay: Contextual fear conditioning and extinction; format: in vivo, mouse
Description: Contextual fear conditioning: this test was modified from previous studies ([Karpova et al., 2011]). Briefly, adult male and female mice (18-22 weeks old) were conditioned to 5 scrambled foot shocks (0.6mA/2 s) during the 8 min session (arena: 23 × 23 × 35cm) under constant illumination (100 lux). During the extinction trials, the animals were exposed to the same context where the shocks were delivered and the time spent in freezing during the 8 min session was automatically determined by the software (TSE Systems, Germany).

GFP-TRKB [4] = assay: FRAP of GFP-TRKB in dendritic spines of hippocampal neurons; format: cell-based, rat; conditions: BDNF 20 ng/mL, FLX 1 μM, KET 10 μM; 15 min pretreatment
Description: For the fluorescence recovery after photobleaching (FRAP) experiments, E18 rat embryo hippocampal cells were plated onto glass coverslips coated with poly-L-lysine (Sigma-Aldrich) in 4-well cell culture plates at a density of 200.000 cells/well. The cultures were incubated at +37°C in serum-free Neurobasal medium (supplemented with 2% B27, 1% L-glutamine and 1% ampicillin) for approximately 2 weeks (DIV 14-16), renewing half of the growth media weekly. Then, they were transfected with Lipofectamine 2000 (Invitrogen) in order to overexpress GFP-tagged TRKB constructs (TRKB.WT or TRKB.Y433F). The cultures were incubated with the transfection mix (per well: 50ul neurobasal medium, 1ul Lipofectamine 2000, 1ug plasmid DNA) in serum-free media for 1.5 hours, followed by 3x medium washes and returned to the original growth medium after that. The cells were left at +37°C o/n to overexpress the constructs ([Koskinen et al., 2012]). Next day, FRAP was performed with a confocal microscope (Zeiss LSM 710, Carl Zeiss AG) adapted for live cell imaging with a chamber set at +37°C and 5%CO2 (Zeiss Temp Module system, Carl Zeiss AG). Coverslips with the cultured hippocampal neurons were carefully transferred to 35mm Petri dishes with warm HBSS medium without phenol red or serum to avoid sources of background fluorescence. After a 10 minutes adaptation period in the microscope chamber to avoid focus drift caused by temperature fluctuations of the stage and objective, dendritic shafts or spines (spine head diameter = ∼1um) were localized with a 63x/0.90 NA dipping water objective. Picture format was 512x512 pixels. The nominal speed to capture images was set to 9 (pixel dwell 3.15 μseconds, taking approximately 0.5 s to finish a scan), and the pinhole aperture was set to completely open to obtain a strong fluorescent signal ([Koskinen et al., 2012]; [Zheng et al., 2011]). Once a region of interest (ROI) was selected with a circle that contained the whole spine, it was bleached to establish the FRAP baseline. […]

pTRKB.Y816 = format: cell-based, rat; conditions: 10 μM/15 min
Description: as §5
The levels of total and phosphorylated TRKB at Y515 or Y816 in MG87.TRKB cells, challenged with BDNF, as well as the levels of PLCg1 and pTRKB.Y816 were measured by western-blotting ([Rantamäki et al., 2007]).

TRKB:PLC-γ1 interaction = TRKB:PLC-γ1 interaction ELISA in cortical cells; format: cell-based, rat; conditions: rat cortical cells
In short: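 Sandwich ELISA on cultured cortical cell lysates: plates coated with anti-TRKB or anti-PLC-γ1 capture antibody, samples bound overnight at 4°C, then detected with anti-pY or anti-PLC-γ1 antibody plus HRP-conjugated secondary or streptavidin. Read-out is ECL chemiluminescence.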

mice [5] = assay: Forced swimming test (FST); format: in vivo, mouse; conditions: FLX 15 mg/kg for 21 days, KET 10 mg/kg i.p. 2 h before
Description: Forced swimming test: animals (adult male and female mice, 18-22 weeks old) were placed in 5l glass beaker cylinders (19cm diameter, with 20cm water column) for 6min. The immobility was assessed in the last 4min of the session ([Diniz et al., 2018]). The water was changed between each test. After swimming, animals were towel-dried and kept in a warmed cage before returning to their home cages. Test was videotaped and analyzed by a trained observer blind to treatment.

[6] = wild-type mice, FLX 15 mg/kg for 2 weeks, KET 10 mg/kg i.p. after conditioning and 2 h before each extinction trial

Row | Molecule | rescue of pravastatin-reduced neuronal survival (E18 cortical cells) | size of clusters of GFP-TRKB.Y433F at the plasma membrane (GFP-TRKB.Y433F) | size of clusters formed by wild-type GFP-TRKB at the plasma membrane (GFP-TRKB [1]) | effect on TRKB phosphorylation (pTRKB) by BDNF ([2]; CHOL 20 μM) | effect on TRKB phosphorylation (pTRKB) by BDNF ([2]; CHOL 50–100 μM) | extinction of conditioned fear (mice [3]; TRKB.Y433F mice) | extinction of conditioned fear (mice [3]; pravastatin-FLX co-treated mice) | extinction of conditioned fear (mice [3]; [6]) | recovery of GFP-TRKB fluorescence in dendritic spines after bleaching (GFP-TRKB [4]) | pTRKB at Y816 (pTRKB.Y816) | rescue of BDNF-induced pTRKB response under high CHOL ([2]; cholesterol 50 μM, drug 10 μM 15 min, BDNF 10 ng/ml 15 min) | TRKB interaction with PLC-γ1 (TRKB:PLC-γ1 interaction) | immobility in the FST (mice [5]; TRKB.Y433F mice) | immobility in the FST (mice [5]; wild-type mice)
1 | CC(C)CCC[C@@H](C)[C@H]1CC[C@H]2[C@@H]3CC=C4C[C@@H](O)CC[C@]4(C)[C@H]3CC[C@]12C [CHOL, cholesterol] | rescued | not clusters of GFP-TRKB.Y433F mutants | increased the size of clusters | enhanced TRKB phosphorylation | suppressed the effects of BDNF |  |  |  |  |  |  |  |  | 
2 | CNCCC(Oc1ccc(C(F)(F)F)cc1)c1ccccc1 (centres unmarked) [FLX, fluoxetine] |  | not clusters of GFP-TRKB.Y433F mutants | increased the size of clusters |  |  | no increase in fear extinction | no increase in fear extinction | promoted extinction of conditioned fear | promoted recovery of GFP-TRKB fluorescence in dendritic spines | enhanced pTRKB at Y816 | partially rescued | increased TRKB interaction with PLC-γ1 | ineffective | significantly reduced immobility
3 | CNC1(c2ccccc2Cl)CCCCC1=O (centres unmarked) [KET, ketamine] |  | not clusters of GFP-TRKB.Y433F mutants | increased the size of clusters |  |  | no increase in fear extinction |  | promoted extinction of conditioned fear | promoted recovery of GFP-TRKB fluorescence in dendritic spines | enhanced pTRKB at Y816 |  | increased TRKB interaction with PLC-γ1 | ineffective | significantly reduced immobility
4 | B1 | not by BDNF | not clusters of GFP-TRKB.Y433F mutants | increased the size of clusters |  |  |  |  |  | rapid recovery of GFP-TRKB fluorescence in spines |  |  |  |  | 
